Key:
Type in all cases: binding
[1] = biological target: T1, PCSK9 (Homo sapiens, UniProt Q8NBP7); test: PCSK9 Alexa FRET Standard TR-FRET assay; settings: Ki calculated from IC50 and KD of AF cyclic peptide Reagent A; 0.5 nM PCSK9, 20 nM AF cyclic peptide; read-out: Alexa FRET Stdt TR-FRET
T1 construct: biotin (biotinylated); purchased
Protocol: A solution containing 1 nM biotinylated PCSK9+2.5 nM Lance Streptavidin Europium (Strep-Eu) is made in 50 mM HEPES pH 7.4, 0.15 M NaCl, 5 mM CaCl2, 0.01% BSA, and 0.01% Surfactant P20. A separate solution containing 40 nM of the AlexaFluor tagged cyclic peptide is made in the same buffer system. An Echo is used to transfer 0.750 ul of compound to an assay plate followed by the addition of 15 ul of PCSK9+Stept-Eu and 15 ul of AF peptide. The final assay volume is 30.750 ul containing 0.5 nM PCSK9, 1.25 nM Strep-Eu, and 20 nM AF cyclic peptide. The reaction is incubated at room temperature for at least two hours prior to fluorescence measurements using an Envision Multilabel Reader. IC50 values are determined by fitting data to a sigmoidal dose-response curve using nonlinear regression. Ki is then calculated from the Ic50 and the KD of AF cyclic peptide. Counts (B-counts) of the europium-labeled PCSK9 are followed to observe if compounds are adversely PCSK9. A fall off of the B-counts likely indicates a false positive of inhibition. Data from this procedure is reported as “A=‘numerical value’ (nanomolar)”

[2] = biological target: T1, PCSK9; test: PCSK9 Alexa FRET Plus TR-FRET assay
Protocol: A separate solution containing 1920 nM of the AlexaFluor tagged cyclic peptide is made in the same buffer system. […] The reaction is incubated at room temperature for at least two hours prior to fluorescence measurements using an Envision Multilabel Reader. IC50 values are determined by fitting data to a sigmoidal dose-response curve using nonlinear regression. Ki is then calculated from the Ic50 and the KD of AF cyclic peptide. Counts (B-counts) of the europium-labeled PCSK9 are followed to observe if compounds are adversely affecting PCSK9. A fall off of the B-counts is likely indicates a false positive of inhibition. Data from this procedure is reported as “P=‘numerical value’ (nanomolar)”

[3] = biological target: T1, PCSK9; test: PCSK9 Alexa FRET Ultra TR-FRET assay
Protocol: A separate solution containing 1920 nM of the AlexaFluor tagged cyclic peptide is made in the same buffer system. […] The reaction is incubated at room temperature for at least two hours prior to fluorescence measurements using an Envision Multilabel Reader. IC50 values are determined by fitting data to a sigmoidal dose-response curve using nonlinear regression. Ki is then calculated from the Ic50 and the KD of AF cyclic peptide. Counts (B-counts) of the europium-labeled PCSK9 are followed to observe if compounds are adversely affecting PCSK9. A fall off of the B-counts is likely indicates a false positive of inhibition. Data from this procedure is reported as “Ki Ultra=‘numerical value’ (data reported is nanomolar)”

T1 sequence (Q8NBP7 153-692): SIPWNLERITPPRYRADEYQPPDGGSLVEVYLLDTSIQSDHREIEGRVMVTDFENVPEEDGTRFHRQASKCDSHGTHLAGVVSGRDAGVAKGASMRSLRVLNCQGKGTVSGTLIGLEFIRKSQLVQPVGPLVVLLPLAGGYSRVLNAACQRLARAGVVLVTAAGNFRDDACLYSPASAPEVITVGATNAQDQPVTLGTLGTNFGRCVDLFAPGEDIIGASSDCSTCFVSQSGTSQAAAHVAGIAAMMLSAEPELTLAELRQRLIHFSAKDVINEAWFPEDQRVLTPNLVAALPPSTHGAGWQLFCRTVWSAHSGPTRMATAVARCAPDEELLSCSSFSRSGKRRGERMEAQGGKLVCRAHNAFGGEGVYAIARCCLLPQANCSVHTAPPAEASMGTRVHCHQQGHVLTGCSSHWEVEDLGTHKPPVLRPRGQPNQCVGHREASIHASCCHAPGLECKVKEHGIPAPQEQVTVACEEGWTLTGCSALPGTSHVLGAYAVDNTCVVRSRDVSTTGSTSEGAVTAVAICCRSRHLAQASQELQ

Row | Compound | Ki [1] [pM] | Ki [2] [pM] | Ki [3] [pM]
1 | COc1ccc(C[C@@H]2NC(=O)[C@H]([C@@H](C)O)NC(=O)[C@@H]3[C@@H]4CCN3C(=O)[C@@H]3Cc5cn(c6ccc(F)cc56)CCCCCCN(Cc5ccc(cc5)CCNC(=O)[C@]5(C)CCCN5C2=O)C(=O)CCC(=O)N[C@@H](C)C(=O)N[C@H](CNC(=O)COCCOCCNC(=O)COCCOCCNC(=O)CC[C@H](NC(=O)CCCCC[N+](C)(C)CCNC(=O)CCCCCCCCCCCCCCCCC(=O)O)C(=O)O)C(=O)N[C@@H](Cc2cccc(c2)CNC(=O)CO4)C(=O)N3)cc1 [Ex-5] | < 1260 | < 6 | 7
2 | COc1ccc(C[C@@H]2NC(=O)[C@H]([C@@H](C)O)NC(=O)[C@@H]3[C@@H]4CCN3C(=O)[C@@H]3Cc5cn(c6ccc(F)cc56)CCCCCCN(Cc5ccc(cc5)CCNC(=O)[C@]5(C)CCCN5C2=O)C(=O)CCC(=O)N[C@@H](C)C(=O)N[C@H](CNC(=O)COCCOCCNC(=O)CCCCC[N+](C)(C)CCNC(=O)COCCOCCNC(=O)COCCOCCNC(=O)CC[C@H](NC(=O)CCCCCCCCCCCCCCCCC(=O)O)C(=O)O)C(=O)N[C@@H](Cc2cccc(c2)CNC(=O)CO4)C(=O)N3)cc1 [Ex-6] | < 1260 | 9 | 12
3 | COc1ccc(C[C@@H]2NC(=O)[C@H]([C@@H](C)O)NC(=O)[C@@H]3[C@@H]4CCN3C(=O)[C@@H]3Cc5cn(c6ccc(F)cc56)CCCCCCN(Cc5ccc(cc5)CCNC(=O)[C@]5(C)CCCN5C2=O)C(=O)CCC(=O)N[C@@H](C)C(=O)N[C@H](CNC(=O)CCOCCOCC[N+](C)(C)CCNC(=O)CC[C@H](NC(=O)CCCCCCCCCCCCCCCCC(=O)O)C(=O)O)C(=O)N[C@@H](Cc2cccc(c2)CNC(=O)CO4)C(=O)N3)cc1 [Ex-7] | < 1260 | 8 | 13
4 | COc1ccc(C[C@@H]2NC(=O)[C@H]([C@@H](C)O)NC(=O)[C@@H]3[C@@H]4CCN3C(=O)[C@@H]3Cc5cn(c6ccc(F)cc56)CCCCCCN(Cc5ccc(cc5)CCNC(=O)[C@]5(C)CCCN5C2=O)C(=O)CCC(=O)N[C@@H](C)C(=O)N[C@H](CNC(=O)CC[C@H](NC(=O)CCOCCOCC[N+](C)(C)CCNC(=O)COCCOCCNC(=O)COCCOCCNC(=O)CC[C@H](NC(=O)CCCCCCCCCCCCCCCCC(=O)O)C(=O)O)C(=O)O)C(=O)N[C@@H](Cc2cccc(c2)CNC(=O)CO4)C(=O)N3)cc1 [Ex-8] | < 1260 | 16 | 8
5 | COc1ccc(C[C@@H]2NC(=O)[C@H]([C@@H](C)O)NC(=O)[C@@H]3[C@@H]4CCN3C(=O)[C@@H]3Cc5cn(c6ccc(F)cc56)CCCCCCN(Cc5ccc(cc5)CCNC(=O)[C@]5(C)CCCN5C2=O)C(=O)CCC(=O)N[C@@H](C)C(=O)N[C@H](CNC(=O)COCCOCCNC(=O)COCCOCCNC(=O)CC[C@H](NC(=O)CC[C@H](NC(=O)CCOCCOCC[N+](C)(C)CCNC(=O)CCCCCCCCCCCCCCCCC(=O)O)C(=O)O)C(=O)O)C(=O)N[C@@H](Cc2cccc(c2)CNC(=O)CO4)C(=O)N3)cc1 [Ex-9] | < 1260 | < 6 | 7
6 | COc1ccc(C[C@@H]2NC(=O)[C@H]([C@@H](C)O)NC(=O)[C@@H]3[C@@H]4CCN3C(=O)[C@@H]3Cc5cn(c6ccc(F)cc56)CCCCCCN(Cc5ccc(cc5)CCNC(=O)[C@]5(C)CCCN5C2=O)C(=O)CCC(=O)N[C@@H](C)C(=O)N[C@H](CNC(=O)CCOCCOCC[N+](C)(C)CCNC(=O)COCCOCCNC(=O)COCCOCCNC(=O)CC[C@H](NC(=O)CC[C@H](NC(=O)CCCCCCCCCCCCCCCCC(=O)O)C(=O)O)C(=O)O)C(=O)N[C@@H](Cc2cccc(c2)CNC(=O)CO4)C(=O)N3)cc1 [Ex-10] | < 1260 | 8 | 6

— patent publication US12178842B2, “PCSK9 antagonist compounds” (MERCK SHARP & DOHME LLC, priority 2019, dated 2024)
